# Measurements published in patent US7109339B2, “Substituted tricyclic gamma-carbolines as serotonin receptor agonists and antagonists” (Bristol-Myers Squibb Company, priority 2002, dated 2006).
row,SMILES,melting point [°C]
1,CC(C)(C)OC(=O)N1CC[C@H]2[C@@H](C1)c1cc(Br)cc(C#N)c1N2C(=O)OC(C)(C)C,74 to 78
2,COc1cc2c(c(C(F)(F)F)c1)N[C@H]1CCNC[C@@H]21,140 to 144
3,"COc1ncc(C)cc1Nc1cc(C#N)c2c(c1)[C@@H]1CNCC[C@@H]1N2C [Example 169, (4aS,9bR)-8-(2-methoxy-5-methyl-pyridin-3-ylamino)-5-methyl-2,3,4,4a,5,9b-hexahydro-1H-pyrido[4,3-b]indole-6-carbonitrile]",76 to 80
